Columns and labels:
[1] = system: medial forebrain bundle 6-OHDA hemilesioned rat; assay: CNS state characterization (LFP PSDs / spike trains, cortico-basal ganglia-thalamic loop) in dyskinetic 6-OHDA hemilesioned rat; format: in vivo
Method: Power spectral densities (PSDs) are calculated with a multitaper method (Pesaran, 2008) (50%-overlapping 8-s windows, 7 tapers) implemented in Chronux 2.0 (Mitra and Bokil, 2007). To stabilize the variance and to emphasize narrowband oscillations over wideband signals, PSDs are normalized to the pink noise background according to Halje et al. (Halje et al., 2012), but with one important adaptation: Due to the complexity of the data it is not practical to manually pick frequency bands with pure pink noise in all structures and conditions to get unbiased estimates of the noise background. Instead the whole frequency axis is divided into 20 logarithmically spaced bands (1-1.3, 1.3-1.7, . . . , 151.3-200 Hz) and the median power of each band is used for the fitting of the pink noise power curve S(f)=A/f^B. The pink noise normalization allows us to describe deviations from the pink noise floor in terms of the unit dBpink. As a final step, an average spectrogram is calculated for each structure, based on the spectrograms for each individual local bipolar LFP time series.
Offline spike sorting can be performed with commercially available software to obtain spike trains of individual neurons, for example Offline Sorter by Plexon Inc. Standard spike train statistics like average firing rate and coefficient of variation is then calculated and used as features in the state-space analysis.
elements, where each element is a measured variable. Typically, there are a couple of thousand variables in such a state description and it is necessary to reduce the dimensionality before it is practical to make further state characterizations. […]
To characterize the CNS effects of experimental treatment of symptoms in levodopa-induced dyskinesia, the most widely used model of this disease condition was employed—the medial forebrain bundle 6-OHDA hemilesioned rat. […] Rats were chronically implanted with 128 recording electrodes according to the methods described above and CNS activity patterns were recorded in a number of experiments performed in four adult female Sprague-Dawley rats. […]

[2] = system: medial forebrain bundle 6-OHDA hemilesioned rat; assay: Levodopa-induced dyskinesia, dyskinetic symptoms in 6-OHDA hemilesioned rat; format: in vivo
Description: To characterize the CNS effects of experimental treatment of symptoms in levodopa-induced dyskinesia, the most widely used model of this disease condition was employed—the medial forebrain bundle 6-OHDA hemilesioned rat. In this model, parkinsonism is induced by the injection of this neurotoxin resulting in extensive neurotoxic lesions of midbrain dopaminergic neurons projecting to the forebrain. By injecting the […] in only one of the hemispheres the other hemisphere can be used as an internal control in different recordings conditions/behavioral situations. Following a period of levodopa treatment, animals developed dyskinetic symptoms affecting the side of the body contralateral to the brain lesion (Halje et al., 2012). Thus, neuronal recordings obtained in the parkinsonian and dyskinetic condition can be compared to a healthy control condition. Rats were chronically implanted with 128 recording electrodes according to the methods described above and CNS activity patterns were recorded in a number of experiments performed in four adult female Sprague-Dawley rats.

[3] = system: rats; assay: Behavioral changes in rats treated with psychosis-inducing drugs; format: in vivo, rat; conditions: 10-50 min after injection
[4] = system: rats; assay: CNS state characterization (LFP PSDs, diencephalic/telencephalic structures) in pharmacological psychosis-like states; format: in vivo, rat; conditions: Hippocampus, Nucleus Accumbens, Thalamus; pink noise normalized, FIG. 6
Method: Power spectral densities (PSDs) are calculated with a multitaper method (Pesaran, 2008) (50%-overlapping 8-s windows, 7 tapers) implemented in Chronux 2.0 (Mitra and Bokil, 2007). To stabilize the variance and to emphasize narrowband oscillations over wideband signals, PSDs are normalized to the pink noise background according to Halje et al. (Halje et al., 2012), but with one important adaptation: Due to the complexity of the data it is not practical to manually pick frequency bands with pure pink noise in all structures and conditions to get unbiased estimates of the noise background. […] As a final step, an average spectrogram is calculated for each structure, based on the spectrograms for each individual local bipolar LFP time series. […]
For this purpose, a number of diencephalic and telencephalic structures were recorded in parallel including: hippocampus [corresponding to anterior hippocampus in humans], nucleus accumbens [core and shell], medial prefrontal cortex and anterior gyrus cinguli (adapted to rodent anatomy), the mediodorsal nucleus and the medial geniculate nucleus in thalamus.

CCCN(CCC)C1CCc2cccc(O)c2C1 (stereo not shown) [8-OH-DPAT]
shift of CNS state in state space ([1]; dyskinetic rat, state spaces from spike trains and LFP PSDs, FIGS. 4 and 5): primarily shifted the dyskinetic state back towards the parkinsonian state | effect on dyskinetic symptoms ([2]; 1 mg/kg and 0.4 mg/kg i.p. at the time point of peak dyskinesia, two experiments): effectively suppress dyskinetic symptoms

CNC1(c2ccccc2Cl)CCCCC1=O (stereo not shown) [Ketamine]
behavioral change (locomotion) [3]: increased locomotion

CCN(CC)C(=O)[C@@H]1C=C2c3cccc4[nH]cc(c34)C[C@H]2N(C)C1 [LSD, lysergic acid diethylamide]
LFP power spectra of the drug-induced psychosis-like state [4]: high-frequency narrow band oscillation in n. Accumbens

COc1ccccc1N1CCN(CCN(C(=O)C2CCCCC2)c2ccccn2)CC1 [WAY100635]
reversal of 8-OH-DPAT effect on CNS state (LFP power spectral densities) ([1]; dyskinetic+8-OH-DPAT rat, LFP PSDs in eight structures, FIG. 4): reversed the effect of 8-OH-DPAT inducing a state that closely resembles the initial dyskinetic state | reversal of 8-OH-DPAT effect on CNS state (relative firing rates of neurons) ([1]; dyskinetic+8-OH-DPAT rat, firing rates in eight structures of lesioned hemisphere, FIG. 5): reversed the effect of 8-OH-DPAT to a state closely resembling the initial dyskinetic state | reversal of the anti-dyskinetic effect of the 5-HT1A agonist 8-OH-DPAT ([2]; given after 8-OH-DPAT in dyskinetic rat): fully reversed
